pIC50: −log10 of the molar value.
Assays:
ERAP2 = ERAP2 (Homo sapiens (Human), UniProt Q6P179); assay: In vitro ERAP activity assay, ERAP2 with R-AMC substrate; type: biochemical; set-up: IC50 on ERAP2 using R-AMC as substrate: scale not given here; conditions: for pIC50 / IC50 on ERAP2 using R-AMC as substrate: R-AMC as substrate; for pIC50: read-out: IC50 on ERAP2 using R-AMC as substrate
Protocol: (§1) The enzymatic activity of ERAP1 or 2 was assayed using L-AMC (L-Leucine-7-amido-4-methylcoumarin hydrochloride) or R-AMC (L-Arginine-7-amido-4-methylcoumarin hydrochloride) respectively. Hepes at 50 mM with 100 mM NaCl at pH 7 was used as buffer. Briefly, 60 nL of test compounds were added in 384-wells plates (dark, non-binding surface) by acoustic dispensing with nanoacoustic dispenser Echo (Labcyte) and pre-incubated 30 minutes at ambient temperature with 10 μL of ERAP 0.8 μg/mL or 1 μg/mL or vehicle. The reaction was then started with the addition of 10 μL of substrate at 10 μM. The final concentration of ERAP, substrate and DMSO was 0.5 μg/mL, 5 μM and 0.4% respectively. For the kinetic readout a Victor 3V (Perkin-Elmer) was used with excitation at 380 nm and emission at 450 nm. The fluorescence was measured each 3 minutes during one hour.
(§2) The Z and Z′ factors were calculated according to J.-H. Zhang, T. D. Y. Chung, K. R. Oldenburg, A Simple Statistical Parameter for Use in Evaluation and Validation of High Throughput Screening Assays, J. Biomol. Screen., 4 (1999) 67-73. Data analysis was performed using Xlfit® v 5.0 or GraphPad Prism® v 4.0.
(§3) Percentages of inhibition at different concentrations were obtained as described above and IC50s were carried out as 8-point dose response curves and reported as the average of at least three independent measurements. […] Data analysis was performed using Xlfit® v 5.0 or GraphPad Prism® v 4.0. Nonlinear curve fitting and statistical analysis was done using built-in functions.

ERAP1 = ERAP1 (Homo sapiens (Human), UniProt Q9NZ08); assay: In vitro ERAP activity assay, ERAP1 with L-AMC substrate; type: biochemical; conditions: L-AMC as substrate; read-out: IC50 on ERAP1 or ERAAP using L-AMC as substrate
Protocol: as §1, §2, §3

Sequence of ERAP2 (Q6P179 whole entry): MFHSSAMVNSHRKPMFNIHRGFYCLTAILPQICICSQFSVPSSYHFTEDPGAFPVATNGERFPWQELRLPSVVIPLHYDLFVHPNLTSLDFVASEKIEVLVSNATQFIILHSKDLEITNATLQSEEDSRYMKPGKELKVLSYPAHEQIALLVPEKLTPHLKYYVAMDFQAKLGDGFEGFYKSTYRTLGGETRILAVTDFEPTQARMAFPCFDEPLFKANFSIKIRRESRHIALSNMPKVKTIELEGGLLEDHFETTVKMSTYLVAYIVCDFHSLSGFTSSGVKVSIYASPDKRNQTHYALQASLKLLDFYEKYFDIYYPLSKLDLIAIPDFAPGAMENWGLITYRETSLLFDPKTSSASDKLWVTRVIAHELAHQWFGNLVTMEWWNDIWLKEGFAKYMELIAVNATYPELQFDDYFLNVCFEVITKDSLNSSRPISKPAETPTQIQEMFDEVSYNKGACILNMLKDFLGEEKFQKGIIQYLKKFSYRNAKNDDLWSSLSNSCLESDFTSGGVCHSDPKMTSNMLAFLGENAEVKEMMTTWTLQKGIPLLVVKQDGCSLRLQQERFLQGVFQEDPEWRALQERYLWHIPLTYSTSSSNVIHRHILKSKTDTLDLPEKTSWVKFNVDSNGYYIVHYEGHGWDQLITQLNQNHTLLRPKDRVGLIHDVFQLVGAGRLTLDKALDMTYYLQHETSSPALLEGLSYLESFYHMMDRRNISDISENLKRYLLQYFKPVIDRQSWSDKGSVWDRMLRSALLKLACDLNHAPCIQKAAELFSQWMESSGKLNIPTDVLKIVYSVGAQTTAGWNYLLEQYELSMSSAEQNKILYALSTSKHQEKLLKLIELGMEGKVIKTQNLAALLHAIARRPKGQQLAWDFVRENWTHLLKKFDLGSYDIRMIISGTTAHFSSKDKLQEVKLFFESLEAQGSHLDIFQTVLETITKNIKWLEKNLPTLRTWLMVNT
Sequence of ERAP1 (Q9NZ08 whole entry): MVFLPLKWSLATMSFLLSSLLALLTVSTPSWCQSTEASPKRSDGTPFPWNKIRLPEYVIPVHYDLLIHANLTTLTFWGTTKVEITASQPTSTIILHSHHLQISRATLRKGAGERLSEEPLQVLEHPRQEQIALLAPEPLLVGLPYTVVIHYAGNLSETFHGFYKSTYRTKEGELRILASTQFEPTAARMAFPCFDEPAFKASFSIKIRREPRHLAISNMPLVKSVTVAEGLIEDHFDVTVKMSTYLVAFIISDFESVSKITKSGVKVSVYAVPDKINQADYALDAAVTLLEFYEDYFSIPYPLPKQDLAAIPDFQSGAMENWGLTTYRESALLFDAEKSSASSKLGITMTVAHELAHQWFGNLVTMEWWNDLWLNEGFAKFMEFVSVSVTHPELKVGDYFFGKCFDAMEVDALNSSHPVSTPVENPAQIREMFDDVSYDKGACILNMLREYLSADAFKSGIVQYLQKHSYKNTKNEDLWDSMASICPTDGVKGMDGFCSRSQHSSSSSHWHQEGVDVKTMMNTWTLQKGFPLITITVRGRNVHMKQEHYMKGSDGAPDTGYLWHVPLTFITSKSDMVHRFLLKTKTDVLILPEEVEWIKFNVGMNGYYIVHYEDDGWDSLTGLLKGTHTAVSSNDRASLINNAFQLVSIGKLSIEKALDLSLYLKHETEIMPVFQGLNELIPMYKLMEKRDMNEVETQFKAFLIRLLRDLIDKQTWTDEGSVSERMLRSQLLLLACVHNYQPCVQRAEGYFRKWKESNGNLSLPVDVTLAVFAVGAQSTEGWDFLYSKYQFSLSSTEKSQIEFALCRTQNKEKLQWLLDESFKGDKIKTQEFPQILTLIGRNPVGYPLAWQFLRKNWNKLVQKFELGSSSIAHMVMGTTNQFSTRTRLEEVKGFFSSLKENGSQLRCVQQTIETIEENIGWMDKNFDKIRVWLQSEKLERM

| SMILES | pIC50 (ERAP2) | pIC50 (ERAP1) | IC50 on ERAP2 using R-AMC as substrate (ERAP2) | inhibition at 2000 µM (ERAP2; at 2 mM, ERAP1 or 2 activity assay, read-out: inhibition (reference inhibitor)) [%] |
| --- | --- | --- | --- | --- |
| O=C(C[C@@H](Cc1c[nH]c2ccccc12)n1cc(CNS(=O)(=O)c2ccc(-c3ccccc3)s2)nn1)NO [Compound 1] | < 5.30 | – | – | – |
| Cc1ccc(S(=O)(=O)NCc2cn([C@@H](Cc3ccc(O)cc3)C(=O)NO)nn2)s1 [Compound 16] | – | – | + + | – |
| CN(Cc1cn([C@H](CC(=O)NO)Cc2ccc(O)cc2)nn1)S(=O)(=O)c1ccc(-c2ccccc2)s1 [Compound 9] | < 5.30 | – | – | – |
| CC(C)(C)Oc1ccc(C[C@@H](C(=O)NO)n2cc(CNS(=O)(=O)c3ccc(-c4ccccn4)s3)nn2)cc1 [Compound 27] | > 6.30 | – | – | – |
| O=C(C[C@H](Cc1ccc(O)cc1)n1cc(CNS(=O)(=O)c2ccc(-c3ccccc3)s2)nn1)NO [Compound 7] | – | – | + + | – |
| O=C(NO)[C@@H](Cc1c[nH]c2ccccc12)n1cc(CNS(=O)(=O)c2ccc(-c3ccccc3)s2)nn1 [Compound 2] | < 5.30 | < 5.30 | – | – |
| O=C(NO)[C@H](Cc1ccc(O)cc1)n1cc(CNS(=O)(=O)c2sccc2Br)nn1 [Compound 18] | – | – | + + | – |
| O=C(NO)[C@H](Cc1ccc(O)cc1)n1cc(CNS(=O)(=O)c2cccs2)nn1 [Compound 15] | – | < 5.30 | + + | – |
| O=C(NO)[C@H](Cc1ccc(OC(F)(F)F)cc1)n1cc(CNS(=O)(=O)c2ccc(-c3ccccn3)s2)nn1 [Compound 21] | > 6.30 | – | – | – |
| CN(Cc1cnnn1[C@H](CC(=O)NO)Cc1ccc(O)cc1)S(=O)(=O)c1ccc(-c2ccccc2)s1 [Compound 32] | – | – | + + | – |
| O=C(C[C@H](Cc1ccc(O)cc1)n1nncc1CNS(=O)(=O)c1ccc(-c2ccccc2)s1)NO [Compound 31] | – | – | + + | – |
| CN(Cc1cn([C@@H](Cc2c[nH]c3ccccc23)C(=O)NO)nn1)S(=O)(=O)c1ccc(-c2ccccc2)s1 [Compound 3] | – | < 5.30 | + + | – |
| O=C(C[C@@H](Cc1ccc2ccccc2c1)n1cc(CNS(=O)(=O)c2ccc(-c3ccccc3)s2)nn1)NO [Compound 6] | – | < 5.30 | + + | – |
| O=C(NO)[C@H](Cc1ccc(O)cc1)n1cc(CNS(=O)(=O)c2ccc(-c3cccnc3)s2)nn1 [Compound 29] | > 6.30 | – | – | – |
| O=C(C[C@@H](Cc1c[nH]c2ccccc12)n1nncc1CNS(=O)(=O)c1ccc(-c2ccccc2)s1)NO [Compound 30] | < 5.30 | – | – | – |
| O=C(NO)[C@H](Cc1ccc(O)cc1)n1cc(CNS(=O)(=O)c2ccc(-c3ccccc3)s2)nn1 [Compound 10] | – | < 5.30 | + + | – |

| SMILES | pIC50 (ERAP2) | pIC50 (ERAP1) | IC50 on ERAP2 using R-AMC as substrate (ERAP2) | inhibition at 2000 µM (ERAP2; at 2 mM, ERAP1 or 2 activity assay, read-out: inhibition (reference inhibitor)) [%] |
| --- | --- | --- | --- | --- |
| CNC(=O)c1ccc(-c2ccc(S(=O)(=O)NCc3cn([C@@H](Cc4ccc(OC)cc4)C(=O)NO)nn3)s2)cc1 [Compound 28] | > 6.30 | > 5.30 | – | – |
| O=C(NO)[C@@H](Cc1ccc(O)cc1)n1cc(CNS(=O)(=O)c2ccc(-c3ccccn3)s2)nn1 [Compound 20] | – | < 5.30 | + + | – |
| O=C(NO)[C@H](Cc1c[nH]c2ccccc12)n1cc(CNS(=O)(=O)c2ccc(-c3ccccc3)s2)nn1 [Compound 4] | < 5.30 | < 5.30 | – | – |
| O=C(NO)[C@H](Cc1ccc(O)cc1)n1cc(CNS(=O)(=O)c2ccc(-c3ccccn3)s2)nn1 [Compound 19] | – | < 5.30 | + + | – |
| O=C(NO)[C@@H](Cc1ccc(O)cc1)n1cc(CNS(=O)(=O)c2ccc(-c3ccccc3)s2)nn1 [Compound 8] | – | < 5.30 | + + | – |
| O=C(NO)[C@H](Cc1c[nH]c2ccccc12)n1cc(CNS(=O)(=O)c2ccc(Br)s2)nn1 [Compound 5] | – | < 5.30 | + + | – |
| COc1ccc(C[C@@H](C(=O)NO)n2cc(CNS(=O)(=O)c3ccc(-c4ccccc4)s3)nn2)cc1 [Compound 24] | – | < 5.30 | – | – |
| O=C(NO)[C@H](Cc1ccc(O)cc1)n1cc(CNS(=O)(=O)c2ccc(Br)s2)nn1 [Compound 14] | – | < 5.30 | + + | – |
| CC(C)(C)Oc1ccc(C[C@@H](C(=O)NO)n2cc(CNS(=O)(=O)c3ccc(-c4ccccc4)s3)nn2)cc1 [Compound 26] | > 6.30 | – | – | – |
| NCc1ccc(-c2ccc(S(=O)(=O)NCc3cn([C@@H](Cc4ccc(O)cc4)C(=O)NO)nn3)s2)cc1 [Compound 12] | – | < 5.30 | + + | – |
| O=C(NO)[C@H](Cc1ccc(OC(F)(F)F)cc1)n1cc(CNS(=O)(=O)c2ccc(-c3ccccc3)s2)nn1 [Compound 22] | > 6.30 | – | – | – |
| CC(C)C[C@H](NC(=O)[C@@H](O)[C@H](N)Cc1ccccc1)C(=O)O [Bestatin, reference compound] | – | – | – | 100 |
| O=C(NO)[C@H](Cc1ccc(O)cc1)n1nncc1CNS(=O)(=O)c1ccc(-c2ccccc2)s1 [Compound 34] | – | – | + + | – |
| CNC(=O)c1ccc(-c2ccc(S(=O)(=O)NCc3cn([C@@H](Cc4ccc(O)cc4)C(=O)NO)nn3)s2)cc1 [Compound 11] | – | – | + + | – |
| O=C(C[C@H](Cc1ccc(O)cc1)n1nncc1CNS(=O)(=O)c1ccc(-c2ccccn2)s1)NO [Compound 33] | – | < 5.30 | – | – |

Results, then the compound that gave them:

| pIC50 (ERAP2) | pIC50 (ERAP1) | IC50 on ERAP2 using R-AMC as substrate (ERAP2) | inhibition at 2000 µM (ERAP2; at 2 mM, ERAP1 or 2 activity assay, read-out: inhibition (reference inhibitor)) [%] | SMILES |
| --- | --- | --- | --- | --- |
| > 6.30 | – | – | – | COc1ccc(C[C@@H](C(=O)NO)n2cc([C@H](C)NS(=O)(=O)c3ccc(-c4ccccn4)s3)nn2)cc1 [Compound 47] |
| > 6.30 | > 5.30 | – | – | N#Cc1ccc(C[C@@H](C(=O)NO)n2cc(CNS(=O)(=O)c3ccc(-c4ccccc4)s3)nn2)cc1 [Compound 60] |
| > 6.30 | > 5.30 | – | – | COc1ccc(C[C@@H](C(=O)NO)n2cc(CNS(=O)(=O)c3ccc(-c4ccccn4)s3)nn2)cc1OC [Compound 41] |
| < 5.30 | > 5.30 | – | – | COc1ccc(C[C@@H](C(=O)NO)n2cc([C@@H]3CCCN3S(=O)(=O)c3ccc(-c4ccccc4)s3)nn2)cc1 [Compound 59] |
| > 6.30 | < 5.30 | – | – | O=C(NO)[C@H](Cc1ccc2c(c1)OCO2)n1cc(CNS(=O)(=O)c2ccc(-c3ccccn3)s2)nn1 [Compound 37] |
| > 6.30 | – | – | – | COc1ccc(C[C@@H](C(=O)NO)n2cc(CN(C)S(=O)(=O)c3ccc(-c4ccccn4)s3)nn2)cc1 [Compound 46] |
| > 6.30 | > 5.30 | – | – | COc1ccc(C[C@@H](C(=O)NO)n2cc(CNS(=O)(=O)c3cnc(-c4ccccc4)s3)nn2)cc1 [Compound 56] |
| > 6.30 | > 5.30 | – | – | COc1ccc(C[C@@H](C(=O)NO)n2cc(CNS(=O)(=O)c3ccc(-c4ccccn4)s3)nn2)cc1Cl [Compound 53] |
| > 6.30 | > 6.30 | – | – | COc1ccc(C[C@@H](C(=O)NO)n2cc(CNS(=O)(=O)c3ccc(-c4ccccc4)s3)nn2)cc1OC [Compound 42] |
| > 6.30 | < 5.30 | – | – | COc1ccc(C[C@@H](C(=O)NO)n2cc(CNS(=O)(=O)c3ccc(-c4ccncc4)s3)nn2)cc1 [Compound 36] |
| – | < 5.30 | + + | – | COc1ccc(C[C@@H](C(=O)NO)n2cc(CN(C3CC3)S(=O)(=O)c3ccc(-c4ccccn4)s3)nn2)cc1 [Compound 57] |
| > 6.30 | < 5.30 | – | – | COc1ccc(C[C@@H](C(=O)NO)n2cc(CNS(=O)(=O)c3ccc(-c4ccccn4)s3)nn2)cc1F [Compound 52] |
| > 6.30 | > 5.30 | – | – | O=C(NO)[C@H](Cc1ccc(O)c(Cl)c1)n1cc(CNS(=O)(=O)c2ccc(-c3ccccn3)s2)nn1 [Compound 39] |
| > 6.30 | > 5.30 | – | – | N=C(NO)c1ccc(C[C@@H](C(=O)NO)n2cc(CNS(=O)(=O)c3ccc(-c4ccccc4)s3)nn2)cc1 [Compound 55] |
| < 5.30 | – | – | – | COc1ccccc1C[C@@H](C(=O)NO)n1cc(CNS(=O)(=O)c2ccc(-c3ccccn3)s2)nn1 [Compound 50] |
| > 6.30 | – | – | – | COc1ccc(C[C@@H](C(=O)NO)n2cc(CNS(=O)(=O)c3ccc(-c4cccnc4)s3)nn2)cc1 [Compound 38] |
| > 6.30 | < 5.30 | – | – | O=C(NO)[C@H](Cc1ccc(O)c(Cl)c1)n1cc(CNS(=O)(=O)c2ccc(-c3ccccc3)s2)nn1 [Compound 40] |
| > 6.30 | < 5.30 | – | – | COc1cccc(C[C@@H](C(=O)NO)n2cc(CNS(=O)(=O)c3ccc(-c4ccccn4)s3)nn2)c1 [Compound 49] |
| > 6.30 | > 5.30 | – | – | C#Cc1ccc(C[C@@H](C(=O)NO)n2cc(CNS(=O)(=O)c3ccc(-c4ccccc4)s3)nn2)cc1 [Compound 54] |
| < 5.30 | – | – | – | O=C(NO)[C@@H](Cc1ccc(O)cc1)n1nncc1CNS(=O)(=O)c1ccc(-c2ccccc2)s1 [Compound 35] |
| > 5.30 | – | – | – | COc1ccc(C[C@@H](C(=O)NO)n2cc([C@@H](C)NS(=O)(=O)c3ccc(-c4ccccn4)s3)nn2)cc1 [Compound 48] |
| > 6.30 | – | – | – | COCCOc1ccc(C[C@@H](C(=O)NO)n2cc(CNS(=O)(=O)c3ccc(-c4ccccn4)s3)nn2)cc1 [Compound 51] |

— patent US20240101542A1, “ERAP INHIBITORS” (UNIVERSITE DE LILLE, priority 2020, published 2024)
